The values that follow come from US9474276B2, “Synergistic pesticidal compositions and related methods” (Dow AgroSciences LLC, priority 2013, dated 2016).

Molecules are shown by their SMILES.

For this experiment, the system named is diamondback moth, Plutella xylostella. The experiment can be described thus: Bioassay on treated cabbage plants (track sprayer, 400 L/Ha) infested with second instar diamondback moth; synergy judged by Colby's equation. The format is in vivo. The source says:
The method described in Colby S. R., “Calculating Synergistic and Antagonistic Responses of Herbicide Combinations,” Weeds, 1967, 15, 20-22 was used to determine an existence of synergic effect between the inhibitor of chitin biosynthesis, type 1 compound and the pesticide (I), (II), or any agriculturally acceptable salt thereof in the formulated pesticidal composition. In this method, the percent insect control of the formulated pesticidal composition as observed in the study was compared to the “expected” percent control (E) as calculated by equation (1) (hereinafter “Colby's equation”) below:
[formula] where • X is the percentage of control with the first pesticide at a given rate (p), • Y is the percentage of control with the second pesticide at a given rate (q), and • E is the expected control by the first and second pesticide at a rate of p+q.
Bioassays were performed for different active compounds. Cabbage plants with about two to three new-growth-true leaf stage were treated with different active compounds using a track sprayer application at 400 L/Ha spray volume. Three second instar diamondback moth, Plutella xylostella, were infested onto each leaf disc. The percent control of the pesticidal composition against diamondback moth, Plutella xylostella, was determined as the “Observed” action, and compared to those obtained by using about 0.000625 weight % of compound I, and using about 0.000625 weight % of buprofezin alone. The “Colby's Expected Action” was calculated using Colby's equation as discussed previously.
Bioassays were performed wherein different active compounds were tested against diamondback moth, Plutella xylostella, using the procedure described in example 5A.
Bioassays may be performed for different active compounds against diamondback moth, Plutella xylostella, using the procedure described in example 5A. The percent control may be determined after three days after the treatment.

Where [1] appears, read: Example 5A, active used alone, dose rate 0.000625 weight %, diamondback moth on cabbage.

In the case of `CC(C)N1C(=O)N(c2ccccc2)CS/C1=N\C(C)(C)C` [Buprofezin, (E,Z)-2-tert-butylimino-3-isopropyl-5-phenyl-1,3,5-thiadiazinan-4-one], the “% Control Three Days After Treatment” value reads like this: under setting [1], 0%; (Example 5A, active used alone, dose rate 0.000625 weight %, diamondback moth on cabbage, listed as buprofezin) “no control”; (Example 5B, buprofezin alone, dose rate 0.0025 weight %) 0%; (Example 5B, buprofezin alone, dose rate 0.0025 weight %, listed as buprofezin) “no control”; (Example 5C, buprofezin alone, dose rate 0.000625 weight %) 0%; (Example 5C, buprofezin alone, dose rate 0.000625 weight %, listed as buprofezin) “no control”.
In the case of `CCN(C(=O)CCSCCC(F)(F)F)c1cn(-c2cccnc2)nc1Cl` [Compound I, N-(3-chloro-1-(pyridin-3-yl)-1H-pyrazol-4-yl)-N-ethyl-3-((3,3,3-trifluoropropyl)thio)propanamide], the “% Control Three Days After Treatment” value is reported as “no control” under setting [1]; 0% (Example 5B, compound I alone, dose rate 0.000625 weight %); “no control” (Example 5B, compound I alone, dose rate 0.000625 weight %, listed as compound I); 0% (Example 5C, compound I alone, dose rate 0.0025 weight %); “no control” (Example 5C, compound I alone, dose rate 0.0025 weight %, listed as compound I).
